In PMC10518257 (Nature Cancer, 2023):
Several values for one entry are separate records, joined by “and”; a condition that tells them apart may be missing. Equal entries are not always repeated. Where two headings read alike, the source gives them in different places.

Assays:
[1] = test system: Ba/F3 cells expressing KIF5B–RET^G810R; assay: Growth inhibition assay in Ba/F3 cells (CellTiter-Glo, 72 h); format: cell-based; settings: Ba/3-KIF5B-RET-G810R; replicate Sets 1-3
LUAD-0086AS3 cells = assay: Growth inhibition (alamarBlue, 96 h); format: cell-based, human; settings: for raw viability signal (Source Data Fig. 3b-c): LUAD-0086AS3 (n=1, 3 replicates)
TT cells (RET C634W) = assay: Dose-response western blotting, EC50 for inhibition of protein phosphorylation; format: cell-based; settings: Homo sapiens
[2] = test system: Ba/F3 cells expressing KIF5B–RET^V804M; assay: Growth inhibition assay in Ba/F3 cells (CellTiter-Glo, 72 h); format: cell-based; settings: replicate sets
Ba/F3-CCDC6::RET^S904F = assay: as above; format: cell-based
[3] = test system: Ba/F3 cells expressing KIF5B–RET^G810S; assay: as above; format: cell-based; settings: replicate Sets 1-3
[4] = test system: Ba/F3 KIF5B–RET^G810R allograft tumors; assay: Subcutaneous allograft efficacy study; format: in vivo, BALB/c nude mice; settings: in mm³ (unit assumed);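 note: mean tumor volume per dosing group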
LUAD-0002AS1 cells = assay: Growth inhibition (alamarBlue, 96 h); format: cell-based, human; settings: for raw viability signal (Source Data Fig. 3b-c): LUAD-0002AS1, replicate sets
[5] = test system: Ba/F3 cells expressing KIF5B–RET^WT; assay: Growth inhibition assay in Ba/F3 cells (CellTiter-Glo, 72 h); format: cell-based
[6] = Transcellular transport study, apparent permeability; settings: pig, LLC-PK1
[7] = Homo sapiens, 96 h, read-out: IC50 for Inhibition of Growth (95% CI)

COCc1ccc(NC(=O)c2c(C#CCN3CCOCC3)n(C3(C)CC3)c3ncnc(N)c23)cc1 [Vepafestinib, 4-amino-N-[4-(methoxymethyl)phenyl]-7-(1-methylcyclopropyl)-6-[3-(morpholin-4-yl)prop-1-yn-1-yl]-7H-pyrrolo[2,3-d]pyrimidine-5-carboxamide]
GI50 [1]: 24.2 nM and 46.7 nM | IC50 (LUAD-0086AS3 cells; [7]): 116 nM | raw viability signal (Source Data Fig. 3b-c) (LUAD-0086AS3 cells; 0.01 nM): 16237.2 and 19485.2 and 18210.6 | raw viability signal (Source Data Fig. 3b-c) (LUAD-0086AS3 cells; 0.1 nM): 16457.6 and 20449.8 and 20222 | raw viability signal (Source Data Fig. 3b-c) (LUAD-0086AS3 cells; 1 nM): 16743.2 and 19056.2 and 19367.3 | raw viability signal (Source Data Fig. 3b-c) (LUAD-0086AS3 cells; 10 nM): 12680.1 and 18071 and 16933 | raw viability signal (Source Data Fig. 3b-c) (LUAD-0086AS3 cells; 100 nM): 5830.14 and 9884.36 and 9286.4 | raw viability signal (Source Data Fig. 3b-c) (LUAD-0086AS3 cells; 1000 nM): 6803.13 and 8603.1 and 8594.97 | raw viability signal (Source Data Fig. 3b-c) (LUAD-0086AS3 cells; 10000 nM): 3602.32 and 4605.44 and 4993.57 | EC50 (TT cells (RET C634W); read-out: EC50 for Inhibition of Protein Phosphorylation (95% CI), AKT S473, 2 h, densitometry): 2.4 nM | EC50 (TT cells (RET C634W); read-out: EC50 for Inhibition of Protein Phosphorylation (95% CI), ERK1/2 T202/Y204, 2 h, densitometry): 0.3 nM | EC50 (TT cells (RET C634W); read-out: EC50 for Inhibition of Protein Phosphorylation (95% CI), MEK1/2 S217/S221, 2 h, densitometry): 2.1 nM | EC50 (TT cells (RET C634W); read-out: EC50 for Inhibition of Protein Phosphorylation (95% CI), P70 RSK T421/S424, 2 h, densitometry): 1.1 nM | EC50 (TT cells (RET C634W); read-out: EC50 for Inhibition of Protein Phosphorylation (95% CI), RET Y905, 2 h, densitometry): 0.3 nM | EC50 (TT cells (RET C634W); read-out: EC50 for Inhibition of Protein Phosphorylation (95% CI), S6RP S235/S236, 2 h, densitometry): 0.7 nM | GI50 ([2]; Ba/3-KIF5B-RET-V804M): 38.7 nM | GI50 ([2]; Mus musculus, BaF3, Ba/3-KIF5B-RET-V804M): 44.8 nM | GI50 (Ba/F3-CCDC6::RET^S904F; BaF3/CCDC6-RET, read-out: GI50 values, Ba/F3-CCDC6::RET S904F, individual sets (replicate experiments)): 28.5 nM | GI50 (Ba/F3-CCDC6::RET^S904F; Mus musculus, BaF3, 72 h, read-out: GI50 value (Mean ± SD), Ba/F3-CCDC6::RET^S904F, CellTiter-Glo, 72 h): 24.7 ± 5 nM | GI50 (Ba/F3-CCDC6::RET^S904F; read-out: GI50 values, Ba/F3-CCDC6::RET S904F, individual sets (replicate experiments)): 26.7 nM and 19.1 nM | GI50 ([3]; Ba/3-KIF5B-RET-G810S): 14.7 nM and 13.1 nM | GI50 ([3]; Mus musculus, BaF3, Ba/3-KIF5B-RET-G810S): 7.93 nM | Tumor Volume Mean ([4]; Fig. 7c Ba/F3-KIF5B::RET G810R, vepafestinib 10 mg/kg BID, day 1): 153.82 | Tumor Volume Mean ([4]; Fig. 7c Ba/F3-KIF5B::RET G810R, vepafestinib 10 mg/kg BID, day 4): 151.29 | Tumor Volume Mean ([4]; Fig. 7c Ba/F3-KIF5B::RET G810R, vepafestinib 10 mg/kg BID, day 8): 262.19 | Tumor Volume Mean ([4]; Fig. 7c Ba/F3-KIF5B::RET G810R, vepafestinib 10 mg/kg BID, day 11): 374.99 | Tumor Volume Mean ([4]; Fig. 7c Ba/F3-KIF5B::RET G810R, vepafestinib 10 mg/kg BID, day 15): 551.42 | Tumor Volume Mean ([4]; Fig. 7d Ba/F3-KIF5B::RET G810R, vepafestinib 50 mg/kg BID, day 1): 158.4 | Tumor Volume Mean ([4]; Fig. 7d Ba/F3-KIF5B::RET G810R, vepafestinib 50 mg/kg BID, day 4): 122.1 | Tumor Volume Mean ([4]; Fig. 7d Ba/F3-KIF5B::RET G810R, vepafestinib 50 mg/kg BID, day 8): 133.3 | Tumor Volume Mean ([4]; Fig. 7d Ba/F3-KIF5B::RET G810R, vepafestinib 50 mg/kg BID, day 11): 139.6 | Tumor Volume Mean ([4]; Fig. 7d Ba/F3-KIF5B::RET G810R, vepafestinib 50 mg/kg BID, day 15): 173.1 | IC50 (LUAD-0002AS1 cells; [7]): 6 nM | raw viability signal (Source Data Fig. 3b-c) (LUAD-0002AS1 cells; 0.01 nM): 16782.2 and 12668.5 and 13089 | raw viability signal (Source Data Fig. 3b-c) (LUAD-0002AS1 cells; 0.1 nM): 15237.2 and 13944 and 12774.4 | raw viability signal (Source Data Fig. 3b-c) (LUAD-0002AS1 cells; 1 nM): 14596.9 and 11925.3 and 12443 | raw viability signal (Source Data Fig. 3b-c) (LUAD-0002AS1 cells; 10 nM): 5820.38 and 4419.86 and 6264.61 | raw viability signal (Source Data Fig. 3b-c) (LUAD-0002AS1 cells; 100 nM): 2459.35 and 2506.15 and 3193.42 | raw viability signal (Source Data Fig. 3b-c) (LUAD-0002AS1 cells; 1000 nM): 1853.86 and 1731.17 and 3413.68 | raw viability signal (Source Data Fig. 3b-c) (LUAD-0002AS1 cells; 10000 nM): 1864.65 and 2510.44 and 3189.66 | GI50 ([5]; Ba/3-KIF5B-RET, replicate sets): 8.96 nM and 6.78 nM | GI50 ([5]; Mus musculus, BaF3, 72 h, read-out: GI50 value (Mean ± SD), Ba/F3-KIF5B::RET, CellTiter-Glo, 72 h): 8.27 ± 1.29 nM | GI50 ([5]; Mus musculus, BaF3, Ba/3-KIF5B-RET, replicate sets): 9.06 nM | Papp at 3 h, 1 μM [6]: 24 ×10⁻⁶ cm/s
